Legend:
[1] = system: Bak−/− and DKO A549 cells; test: apoptotic cell death in Bak knockout cells; assay type: cell-based, human
Source text: Bak is a pro-apoptotic protein required for programmed cell death and apoptosis induction in cancer cells. […] Experiments indicate that BKA-073 directly binds to Bak protein and induces Bak oligomerization in mitochondria leading to activation of a proapoptotic function. Experiments indicate that BKA-073-induced Bak oligomerization promotes mitochondrial priming and Cyt c release, which are early changes in net pro-apoptotic signaling at the mitochondria. BKA-073-induced mitochondrial priming and Cyt c release leads to apoptotic cell death of lung cancer cells.
Several Bax/Bak-independent mechanisms of apoptotic cell death have been described. […] It is contemplated that, in addition to the major Bak-dependent apoptosis mechanism, BKA-073 induces a small proportion of apoptotic cell death (about 20%) through Bax/Bak-independent mechanism(s).

[2] = system: KRAS G12D LKB1fl/fl (KL) mice; test: mutant KRAS-driven lung cancer GEMM; assay type: in vivo; details: 15 mg/kg/d i.p., control 4 of 6, p<0.01
Procedure: After administration of adenovirus Cre recombinase in KRAS G12D LKB1fl/fl (KL) mice for 6 weeks, KL mice were treated with KRA-073 (15 mg/kg/d) i.p. for 48 days (n=6 mice/group). Survival of mice is shown for up to 48 days before euthanization in the control group versus the BKA-073 treatment group.
To assess the potency of BKA-073 in KRAS mutant driven lung cancer, lox-stop-lox (LSL)-KRAS G12D LKB1fl/fl (i.e. KL) mice were generated and bred. These mice contain a KRAS G12D LSL knock-in allele and a floxed allele of LKB1 (LKB1fl/fl). Primary lung adenocarcinoma was detectable as early as 6 weeks after intranasal administration of 5×10^6 pfu adenovirus expressing Cre recombinase (AdeCre) in KRAS G12D LKB1fl/fl (KL) mice.
To further assess the potential of BKA-073 as therapy for mutant KRAS-driven lung cancer, BKA-073 (15 mg/kg/d) or vehicle was administered to KL mice i.p. starting at 6 weeks post AdeCre delivery. […] To quantify tumor burden and tumor multiplicity in mice, H&E-stained lungs were imaged with morphometric software to quantify the surface area composed of tumor as opposed to normal tissue compared with the control group. There were 4 deaths out of 6 mice in the control group versus 2 deaths out of 6 mice in the BKA-073 treatment group (p<0.01), calculated up to 48 days before euthanization (FIG. 5).

[3] = system: A549 lung cancer xenografts; test: A549 lung cancer xenografts; assay type: in vivo
Procedure: Nu/Nu mice bearing A549 lung cancer xenografts were treated with increasing doses of BKA-073 (5 to 15 mg/kg/d) i.p. for 28 days. Tumor volume was measured once every 2 days. After treatment, mice were sacrificed, and tumors were removed and analyzed.
To test the potency of BKA-073 in vivo, mice carrying lung cancer xenografts derived from A549 cells were treated i.p. with increasing doses (0, 5, 10, 15 mg/kg/d) of BKA-073 for 28 days. […] To assess whether BKA-073 induced suppression of tumor growth occurs through activation of Bak and apoptosis in vivo, representative samples from harvested tumor tissues were analyzed by cross-linking with BMH for Bak oligomerization or by immunohistochemistry (IHC) for active caspase 3. […] Doses between 5 mg/kg and 15 mg/kg provide an optimal therapeutic index for BKA-073 for in vivo experimentation involving lung cancer xenografts.

For `COc1ccc2nc3ccccc3c(NCCNCC(C)O)c2c1` (stereo not shown) [BKA-073, 1-((2-((2-methoxyacridin-9-yl)amino)ethyl)amino)propan-2-ol], the apoptotic cell death [1] was “about 20%”, the “deaths up to 48 days” value [2] was 2 deaths out of 6 mice and the tolerability ([3]; 5 to 15 mg/kg/d) was “well tolerated without significant toxicity”. The “weight loss and organ toxicities” value ([3]; dose range between 5 and 15 mg/kg/day) was “without weight loss or significant organ toxicities”.
